This is an account of results in patent US10414811B2, “Protease-resistant lipidated GLP-1 analogs” (MEDIMMUNE LIMITED, priority 2015, dated 2019).

Read-outs that look alike come from different tables or passages of the source. Numbered stars: 1 amine (or outer) side, 2 acyl side, 3 side chain; on linkers, the order of the positions; unused ones are H or OH. Square brackets hold non-standard residues; d marks the D form. Side chains are listed from the residue outwards. Peptide text beside a SMILES is read from it. * marks the point of attachment. C18 diacid = O=C(O)CCCCCCCCCCCCCCCCC(=O)*; γGlu = O=C(O)[C@H](CCC(=O)[*:2])N[*:1]; Palmitoyl = CCCCCCCCCCCCCCCC(=O)*; αMeF = C[C@](N)(Cc1ccccc1)C(=O)O; αMeK = C[C@](N)(CCCCN)C(=O)O; Lauroyl = CCCCCCCCCCCC(=O)*; αMeS = C[C@](N)(CO)C(=O)O; AEEA = NCCOCCOCC(=O)O; Aib = CC(C)(N)C(=O)O Where only a bound is given, the exact number is not on record here.

Common to all, as to assay type: cell-based
Assay [1] concerns the target T1, human GLP-1 receptor (GLP-1R) (Homo sapiens, UniProt P43220).
T1 construct: expressed in transfected cells
The assay can be described thus: cAMP assay, human GLP-1R cells. The method in brief: (§1)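 Peptide-stimulated cAMP measured by two-step HTRF after a 30 min room-temperature incubation with receptor-expressing cells (hGLP-1R, hGIPR at 1×10^5 cells/ml; hGCGR at 2×10^5 cells/ml). Duplicate dilutions; EC50 from 4-parameter logistic fit of % Delta F.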

Assay [2] has as its target T2, human glucagon receptor (GCGR) (Homo sapiens, UniProt P47871).
T2 construct: expressed in transfected cells
The assay can be described thus: cAMP assay, human GCGR cells. The gist of the method:
as §1
For orientation: Changes in cAMP serve as a functional read-out for many G protein-coupled receptors.

The target in assay [3] is T3, human glucose-dependent insulinotropic peptide receptor (GIPR) (Homo sapiens, UniProt P48546).
T3 construct: expressed in transfected cells
T3 sequence (P48546 22-466): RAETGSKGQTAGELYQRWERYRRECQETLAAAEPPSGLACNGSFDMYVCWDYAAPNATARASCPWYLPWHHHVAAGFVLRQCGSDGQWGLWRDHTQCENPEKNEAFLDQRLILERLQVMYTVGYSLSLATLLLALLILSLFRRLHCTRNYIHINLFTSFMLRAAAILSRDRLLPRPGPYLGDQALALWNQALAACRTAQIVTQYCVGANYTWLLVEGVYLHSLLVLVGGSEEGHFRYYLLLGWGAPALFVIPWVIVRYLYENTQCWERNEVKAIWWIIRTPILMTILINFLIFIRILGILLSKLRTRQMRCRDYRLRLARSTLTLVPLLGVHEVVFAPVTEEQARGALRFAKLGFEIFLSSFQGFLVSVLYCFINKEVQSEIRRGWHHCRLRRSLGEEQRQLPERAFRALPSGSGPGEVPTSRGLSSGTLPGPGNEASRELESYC
The assay can be described thus: cAMP assay, human GIPR cells. The gist of the method: as §1

[4] abbreviates: cAMP assay, first determination (n1), read-out: Primary assay EC50 GLP-1R n1.
[5] abbreviates: cAMP assay, second determination (n2), read-out: Primary assay EC50 GLP-1R n2.
Setting [6] is: mean of n1 and n2, read-out: Mean pM GLP-1R.
Where [7] appears, read: cAMP assay, first determination (n1), read-out: Primary assay EC50 Gluc-R (n1).
Where [8] appears, read: cAMP assay, second determination (n2), read-out: Primary assay EC50 Gluc-R (n2).
Setting [9] is: cAMP assay, first determination (n1), read-out: Primary assay EC50 GIP-R (n1).
The mark [10] stands for this setting: cAMP assay, second determination (n2), read-out: Primary assay EC50 GIP-R (n2).

T2 sequence (P47871 26-477): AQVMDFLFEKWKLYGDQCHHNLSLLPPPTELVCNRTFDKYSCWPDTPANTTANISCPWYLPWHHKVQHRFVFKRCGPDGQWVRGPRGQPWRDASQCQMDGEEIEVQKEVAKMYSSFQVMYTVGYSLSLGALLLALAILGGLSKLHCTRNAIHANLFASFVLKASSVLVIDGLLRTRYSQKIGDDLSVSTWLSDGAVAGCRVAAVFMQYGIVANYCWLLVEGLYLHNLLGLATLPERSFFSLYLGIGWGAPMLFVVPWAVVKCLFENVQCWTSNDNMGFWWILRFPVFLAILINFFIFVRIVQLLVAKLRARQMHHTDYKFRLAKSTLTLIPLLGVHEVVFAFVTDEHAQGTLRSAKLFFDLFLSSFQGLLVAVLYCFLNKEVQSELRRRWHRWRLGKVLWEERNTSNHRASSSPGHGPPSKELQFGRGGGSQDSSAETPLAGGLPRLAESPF
T1 sequence (P43220 24-463): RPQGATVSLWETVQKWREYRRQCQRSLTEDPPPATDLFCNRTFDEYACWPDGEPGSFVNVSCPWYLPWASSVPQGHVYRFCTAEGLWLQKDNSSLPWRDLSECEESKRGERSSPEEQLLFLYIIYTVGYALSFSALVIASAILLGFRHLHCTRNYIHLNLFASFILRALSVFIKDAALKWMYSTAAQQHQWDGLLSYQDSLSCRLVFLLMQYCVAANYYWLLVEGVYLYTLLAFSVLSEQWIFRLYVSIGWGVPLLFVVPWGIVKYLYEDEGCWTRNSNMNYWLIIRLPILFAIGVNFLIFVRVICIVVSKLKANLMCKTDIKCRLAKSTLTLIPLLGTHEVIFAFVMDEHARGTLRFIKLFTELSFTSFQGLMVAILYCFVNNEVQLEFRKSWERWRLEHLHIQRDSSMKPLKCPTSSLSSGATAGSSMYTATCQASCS

For the compound `CC[C@H](C)[C@H](NC(=O)[C@](C)(Cc1ccccc1)NC(=O)[C@H](CCC(=O)O)NC(=O)[C@](C)(CCCCN)NC(=O)[C@H](C)NC(=O)[C@H](C)NC(=O)[C@H](CCC(=O)O)NC(=O)CNC(=O)[C@H](CCC(=O)O)NC(=O)[C@H](CC(C)C)NC(=O)[C@](C)(Cc1ccccc1)NC(=O)[C@H](CO)NC(=O)[C@](C)(CO)NC(=O)[C@@H](NC(=O)[C@H](CC(=O)O)NC(=O)[C@H](CO)NC(=O)[C@@H](NC(=O)[C@](C)(Cc1ccccc1)NC(=O)[C@H](CO)NC(=O)CNC(=O)[C@H](CCCCNC(=O)COCCOCCNC(=O)COCCOCCNC(=O)CC[C@H](NC(=O)CCCCCCCCCCCCCCCCC(=O)O)C(=O)O)NC(=O)C(C)(C)NC(=O)[C@@H](N)Cc1c[nH]cn1)[C@@H](C)O)C(C)C)C(=O)N[C@@H](C)C(=O)N[C@@](C)(Cc1ccccc1)C(=O)N[C@H](C(=O)N[C@H](C(=O)N[C@@](C)(CCCCN)C(=O)NCC(=O)NCC(N)=O)C(C)C)C(C)C` [compound 126] (H-H[Aib]K([AEEA-AEEA-γGlu-C18 diacid])GS[αMeF]TSDV[αMeS]S[αMeF]LEGEAA[αMeK]E[αMeF]IA[αMeF]VV[αMeK]GG-NH2; N-terminus assumed), the EC50 is at least 25000 pM in assay [1] (setting [4]); at least 25400 pM in assay [1] (setting [5]); at least 25400 pM in assay [1] (setting [6]); at least 25 nM in assay [2] (setting [7]); at least 25.4 nM in assay [2] (setting [8]); at least 25 nM in assay [3] (setting [9]). Further, in assay [3] (setting [10]), the EC50 was at least 25.4 nM.

As to `CCCCCCCCCCCCCCCC(=O)N[C@@H](CCC(=O)NCCCC[C@H](NC(=O)[C@H](CC(C)C)NC(=O)[C@](C)(Cc1ccccc1)NC(=O)[C@H](CO)NC(=O)[C@](C)(CO)NC(=O)[C@@H](NC(=O)[C@H](CC(=O)O)NC(=O)[C@H](CO)NC(=O)[C@@H](NC(=O)[C@](C)(Cc1ccccc1)NC(=O)[C@H](CO)NC(=O)CNC(=O)[C@H](CCC(=O)O)NC(=O)C(C)(C)NC(=O)[C@@H](N)Cc1c[nH]cn1)[C@@H](C)O)C(C)C)C(=O)NCC(=O)N[C@@H](CCC(=O)O)C(=O)N[C@@H](C)C(=O)N[C@@H](C)C(=O)N[C@@](C)(CCCCN)C(=O)N[C@@H](CCC(=O)O)C(=O)N[C@@](C)(Cc1ccccc1)C(=O)N[C@H](C(=O)N[C@@H](C)C(=O)N[C@@](C)(Cc1ccccc1)C(=O)N[C@H](C(=O)N[C@H](C(=O)N[C@@](C)(CCCCN)C(=O)NCC(=O)NCC(N)=O)C(C)C)C(C)C)[C@@H](C)CC)C(=O)O` [compound 85] (H-H[Aib]EGS[αMeF]TSDV[αMeS]S[αMeF]LK([γGlu-Palmitoyl])GEAA[αMeK]E[αMeF]IA[αMeF]VV[αMeK]GG-NH2; N-terminus assumed), the EC50 in assay [1] (setting [4]) was 66 pM; in assay [1] (setting [5]), 140 pM; in assay [1] (setting [6]), 101 pM; in assay [2] (setting [7]), at least 28 nM; in assay [2] (setting [8]) it was at least 28 nM; in assay [3] (setting [9]) it was at least 28 nM. Moreover, the EC50 in assay [3] (setting [10]) was at least 28 nM.

As to `CCCCCCCCCCCC(=O)N[C@@H](CCC(=O)NCCOCCOCC(=O)NCCOCCOCC(=O)NCCCC[C@H](NC(=O)[C@H](CC(=O)O)NC(=O)[C@H](CO)NC(=O)[C@@H](NC(=O)[C@](C)(Cc1ccccc1)NC(=O)[C@H](CO)NC(=O)CNC(=O)[C@H](CCC(=O)O)NC(=O)C(C)(C)NC(=O)[C@@H](N)Cc1c[nH]cn1)[C@@H](C)O)C(=O)N[C@@H](CO)C(=O)N[C@@H](CO)C(=O)N[C@@H](Cc1ccc(O)cc1)C(=O)N[C@@H](CC(C)C)C(=O)N[C@@H](CCC(=O)O)C(=O)NCC(=O)N[C@@H](CCC(=O)O)C(=O)N[C@@H](C)C(=O)N[C@@H](C)C(=O)N[C@@](C)(CCCCN)C(=O)N[C@@H](CCCCNC(=O)COCCOCCNC(=O)COCCOCCNC(=O)CC[C@H](NC(=O)CCCCCCCCCCC)C(=O)O)C(=O)N[C@@H](Cc1ccccc1)C(=O)N[C@H](C(=O)N[C@@H](CCCCNC(=O)COCCOCCNC(=O)COCCOCCNC(=O)CC[C@H](NC(=O)CCCCCCCCCCC)C(=O)O)C(=O)N[C@@H](Cc1ccccc1)C(=O)N[C@H](C(=O)N[C@H](C(=O)N[C@@H](CCC(=O)O)C(=O)NCC(=O)NCC(N)=O)C(C)C)C(C)C)[C@@H](C)CC)C(=O)O` [compound 442] (H-H[Aib]EGS[αMeF]TSDK([AEEA-AEEA-γGlu-Lauroyl])SSYLEGEAA[αMeK]K([AEEA-AEEA-γGlu-Lauroyl])FIK([AEEA-AEEA-γGlu-Lauroyl])FVVEGG-NH2; N-terminus assumed), the EC50 in assay [1] (tris-lipidated peptides, mean of n1 and n2, read-out: Primary assay EC50 Mean pM GLP-1R) is 82 pM; in assay [1] (tris-lipidated peptides, replicate n1, read-out: Primary assay EC50 GLP-1R n1), 60.9 pM; in assay [1] (tris-lipidated peptides, replicate n2, read-out: Primary assay EC50 GLP-1R n2), 103 pM; in assay [2] (tris-lipidated peptides, second replicate, read-out: Primary assay EC50 Gluc-R (n2)), 19.7 nM; in assay [3] (tris-lipidated peptides, first replicate, read-out: Primary assay EC50 GIP-R (n1)), 19.7 nM.

`CC[C@H](C)[C@H](NC(=O)[C@](C)(Cc1ccccc1)NC(=O)[C@H](CCC(=O)O)NC(=O)[C@H](CCCCNC(=O)COCCOCCNC(=O)COCCOCCNC(=O)CC[C@H](NC(=O)CCCCCCCCCCCCCCCCC(=O)O)C(=O)O)NC(=O)[C@H](C)NC(=O)[C@H](C)NC(=O)[C@H](CCC(=O)O)NC(=O)CNC(=O)[C@H](CCC(=O)O)NC(=O)[C@H](CC(C)C)NC(=O)[C@](C)(Cc1ccccc1)NC(=O)[C@H](CO)NC(=O)[C@H](CO)NC(=O)[C@@H](NC(=O)[C@H](CC(=O)O)NC(=O)[C@H](CO)NC(=O)[C@@H](NC(=O)[C@](C)(Cc1ccccc1)NC(=O)[C@H](CO)NC(=O)CNC(=O)[C@H](CCC(=O)O)NC(=O)C(C)(C)NC(=O)[C@@H](N)Cc1c[nH]cn1)[C@@H](C)O)C(C)C)C(=O)N[C@@H](C)C(=O)N[C@@](C)(Cc1ccccc1)C(=O)N[C@H](C(=O)N[C@H](C(=O)N[C@@H](CCCCN)C(=O)NCC(=O)NCC(N)=O)C(C)C)C(C)C` [compound 40]: the EC50 in assay [1] (setting [4]) is 1800 pM; in assay [1] (setting [5]), 570 pM; in assay [1] (setting [6]) it was 1170 pM; in assay [2] (setting [7]), at least 85 nM; in assay [2] (setting [8]) it was at least 26 nM; in assay [3] (setting [9]), at least 85 nM. Also, the EC50 in assay [3] (setting [10]) is at least 26 nM.

As to `CCCCCCCCCCCCCCCC(=O)N[C@@H](CCC(=O)NCCCC[C@H](NC(=O)[C@H](C)NC(=O)[C@H](C)NC(=O)[C@H](CCC(=O)O)NC(=O)CNC(=O)[C@H](CCC(=O)O)NC(=O)[C@H](CC(C)C)NC(=O)[C@](C)(Cc1ccccc1)NC(=O)[C@H](CO)NC(=O)[C@H](CO)NC(=O)[C@@H](NC(=O)[C@H](CC(=O)O)NC(=O)[C@H](CO)NC(=O)[C@@H](NC(=O)[C@](C)(Cc1ccccc1)NC(=O)[C@H](CO)NC(=O)CNC(=O)[C@H](CCC(=O)O)NC(=O)C(C)(C)NC(=O)[C@@H](N)Cc1c[nH]cn1)[C@@H](C)O)C(C)C)C(=O)N[C@@H](CCC(=O)O)C(=O)N[C@@](C)(Cc1ccccc1)C(=O)N[C@H](C(=O)N[C@@H](C)C(=O)N[C@@](C)(Cc1ccccc1)C(=O)N[C@H](C(=O)N[C@H](C(=O)N[C@@H](CCCCN)C(=O)NCC(=O)NCC(N)=O)C(C)C)C(C)C)[C@@H](C)CC)C(=O)O` [compound 41], the EC50 in assay [1] (setting [4]) was 240 pM; in assay [1] (setting [5]), 51 pM; in assay [1] (setting [6]), 147 pM; in assay [2] (setting [7]), at least 94 nM; in assay [2] (setting [8]) it was at least 28 nM; in assay [3] (setting [9]), at least 94 nM. For the same compound, in assay [3] (setting [10]), the EC50 is at least 28 nM.

Turning to `CCCCCCCCCCCCCCCC(=O)N[C@@H](CCC(=O)NCCCC[C@H](NC(=O)[C@H](C)NC(=O)[C@H](CCC(=O)O)NC(=O)CNC(=O)[C@H](CCC(=O)O)NC(=O)[C@H](CC(C)C)NC(=O)[C@](C)(Cc1ccccc1)NC(=O)[C@H](CO)NC(=O)[C@](C)(CO)NC(=O)[C@@H](NC(=O)[C@H](CC(=O)O)NC(=O)[C@H](CO)NC(=O)[C@@H](NC(=O)[C@](C)(Cc1ccccc1)NC(=O)[C@H](CO)NC(=O)CNC(=O)[C@H](CCC(=O)O)NC(=O)C(C)(C)NC(=O)[C@@H](N)Cc1c[nH]cn1)[C@@H](C)O)C(C)C)C(=O)N[C@@](C)(CCCCN)C(=O)N[C@@H](CCC(=O)O)C(=O)N[C@@](C)(Cc1ccccc1)C(=O)N[C@H](C(=O)N[C@@H](C)C(=O)N[C@@](C)(Cc1ccccc1)C(=O)N[C@H](C(=O)N[C@H](C(=O)N[C@@](C)(CCCCN)C(=O)NCC(=O)NCC(N)=O)C(C)C)C(C)C)[C@@H](C)CC)C(=O)O` [compound 81] (H-H[Aib]EGS[αMeF]TSDV[αMeS]S[αMeF]LEGEAK([γGlu-Palmitoyl])[αMeK]E[αMeF]IA[αMeF]VV[αMeK]GG-NH2; N-terminus assumed), the EC50 in assay [1] (setting [4]) is 370 pM; in assay [1] (setting [5]), 200 pM; in assay [1] (setting [6]), 283 pM; in assay [2] (setting [7]), at least 27 nM; in assay [2] (setting [8]) it was at least 27 nM; in assay [3] (setting [9]), at least 27 nM. The EC50 in assay [3] (setting [10]) is at least 27 nM.
